Laboratory results reported in patent US20070197432A1, “Peptides for preventing, diagnosing and treating animal and/or human leptospirosis” (priority 2002, published 2007).
No end group written: not given here.

Key:
PP peptide [1] = assay: Immunization of mice with PP peptide coupled to KLH, anti-PP IgG1/IgG2A ELISA; assay type: in vivo
Protocol: A batch of 5 mice was formed. Two injections were administered subcutaneously, two weeks apart. The 1st injection consists of 10 μg of PP peptide coupled to KLH, with complete Freund's adjuvant, in a volume of 200 μl (v/v). The 2nd injection consists of 10 μg of PP peptide coupled to KLH, with incomplete Freund's adjuvant, in a volume of 200 μl (v/v). This trial was carried out twice.
In parallel, a batch of 5 mice given nothing is used as a control.
A blood sample was taken two weeks after the second injection for serological monitoring.
The anti-PP antibodies produced in the mice are titered by means of an ELISA technique either on individual serological samples or on pools of several sera. The PP antigen is adsorbed in Immulon 4 plates (Dynatech) at a rate of 500 ng of PP per well diluted in 10 mM sodium carbonate buffer, pH=9.4.
After an overnight period at 4° C., the plates are washed with PBS containing 0.2% tween20, and then saturated with a solution of 1% BSA in TNE (50 mM Tris, 150 mM NaCl, 1 mM EDTA, pH 7.4) for 60 min at 37° C. […] The colored reaction is read in a spectrophotometer at 405 nm.
The results of the anti-PP IgG1 antibody response, expressed as corrected OD, of the immunization trials 1 and 2 with the PP peptide coupled to KLH are given in FIG. 1. […]

PP peptide [2] = assay: Trial 1: anti-PP IgG ELISA of gerbils immunized with PP-KLH; assay type: in vivo, gerbil; conditions: three dilutions observed
Protocol: An immunization/challenge protocol was carried out in order to evaluate the protection that can be provided by the PP peptide (SEQ ID No. 1) coupled to the KLH protein.
This construct is administered subcutaneously without adjuvant, with PBS as a negative control (batch 2).
Batch 1: 10 gerbils, 2 injections of 30 μg of PP-KLH in 300 μl, subcutaneously.
The two injections in a volume of 300 μl were administered subcutaneously, two weeks apart. A challenge by intraperitoneal injection of 0.5 ml of a canicola culture with a titer of 90 to 100 TU (turbidimetry) diluted to 10^−2.5 was administered two weeks after the second injection. • Antigenic response: Monitoring by ELISA of the immune response of the gerbils against the PP peptide
The anti-PP antibodies were titered in the gerbil by means of an ELISA technique (described above) with a biotinylated anti-gerbil antiglobulin (BioAtlantic) at 1/3000 and, as visualizing agent, peroxidase-coupled streptavidin (RPN1231, Amersham pharmacia biotech).
For each batch of gerbils, the sera were combined with respect to the various sample dates D0 (before the first immunization), D14 (before the second immunization) and D28 (before the challenge).
The results of the IgG antibody response against the PP peptide, expressed as corrected OD (OD of the treated sera corrected with respect to the OD of the control sera), are given in FIG. 11.

[3] = test system: Leptospira interrogans sl serovar canicola; assay: Dogs immunized with PP-KLH, canicola challenge: cultures of plasma, urine and kidney samples; assay type: in vivo, dog
Protocol: (§1) The animals are given a challenge at a rate of one virulent culture of 4 to 6 days. For an immunized batch and a control batch, each animal received, in each eye, 0.3 ml of the culture having a titer of 120 TU (i.e. 2×10^8 leptospires per ml) and, intraperitoneally, 4 ml of the same culture diluted ten-fold.
(§2) The presence of leptospires was studied jointly by PCR (PCR specific for pathogenic leptospires) and by culturing, in the urine at D0, D10, D14, D18, D25 and D41 and in the kidney samples from each animal at the end of the trial at […].
(§3) Moreover, the bacteriological results were quantified through the setting up of a coefficient: • by immediate culturing. A single live leptospire can give a positive culture. A relative estimation of the bacterial concentration is expressed by means of a coefficient of 3 when a culture has developed in the third serial dilution prepared from the sample. • by PCR on frozen samples. […] A coefficient of 1 was assigned to a PCR with a weak signal and a coefficient of 2 to a strongly positive PCR.

[4] = test system: Leptospira interrogans sl serovar canicola; assay: Dogs immunized with PP-KLH, canicola challenge: PCR on plasma, urine and kidney samples; assay type: in vivo, dog
Protocol: as §1, §2, §3

[5] = test system: Leptospira interrogans sl serovar canicola; assay: Dogs immunized with PP-KLH, canicola challenge: clinical, hematological and biochemical parameters; assay type: in vivo, dog; conditions: at D4
[6] = test system: Leptospira interrogans sl serovar canicola; assay: Dogs immunized with PP-KLH, canicola challenge: cultures of plasma, urine and kidney samples; assay type: in vivo, dog; remark: listed apart in the source

Substance: PP-KLH: PP peptide with cysteine added at the N-terminal position, coupled via sulfo-MBS to KLH carrier protein (keyhole limpet hemocyanin) (KAKPVQKLDDDDDGDDTYKEERHNK; not fully specified (N-terminus))
- immunogenicity (PP peptide [1]): very immunogenic
- anti-PP IgG2A antibody response (PP peptide [1]; 2 s.c. injections of 10 μg with Freund's adjuvant): high but less substantial than the anti-PP IgG1 response
- boost effect of second injection: corrected OD at D28 relative to D14 (PP peptide [2]): more than double
- positive cultures/dogs ([3]; Plasma, D0): 0/6
- positive cultures/dogs ([3]; Plasma, D3): 6/6
- positive cultures/dogs ([3]; Plasma, D7): 0/6
- positive cultures/dogs ([3]; Urine, D14): 2/6
- positive cultures/dogs ([3]; Urine, D18): 3/6
- positive cultures/dogs ([3]; Urine, D25): 4/6
- renal carrier status at the time of euthanasia ([3]; detected both by culturing and by PCR, both groups): renal carriers
- excretion of leptospires in the urine ([3]; immunized versus control dogs, cultures and PCRs): becomes apparent later, or at a lower level
- positive PCR/dogs ([4]; Kidneys, D41): 1/6
- positive PCR/dogs ([4]; Plasma, D0): 0/6
- positive PCR/dogs ([4]; Plasma, D3): 6/6
- positive PCR/dogs ([4]; Plasma, D7): 0/6
- positive PCR/dogs ([4]; Urine, D14): 2/6
- positive PCR/dogs ([4]; Urine, D18): 1/6
- positive PCR/dogs ([4]; Urine, D25): 3/6
- positive PCR/dogs ([4]; Urine, D41): 4/6
- p, monocyte depletion observed only in the controls [5]: 0.05
- p, transient leukopenia greater in control than in immunized dogs [5]: < 0.05
- lymphopenia ([5]; significant in the controls): not noted at all
- positive cultures/dogs ([6]; Kidneys, D41): 5/6
- positive cultures/dogs ([6]; Urine, D7): 3/6
